One test deals with IDH1 R132H enzyme (Homo sapiens (Human), UniProt O75874, R132H). Nature of the test: Mutant IDH1 R132H biochemical assay. The settings on record: NADPH consumption, luminescent readout; 1.5 nM enzyme, 1 μM NADPH, 250 μM α-KG, 30 minutes, 32° C. As for the experimental part: NADPH consumption was measured by luminescent readout. […] The final DMSO concentration was 2.4%. […] Luminescence was measured on a luminescent reader (10 seconds measuring time, 1 second integration period, 30% sensitivity). The decrease in luminescence is proportional to mIDH1 activity. IC50 values are determined by interpolation from plots of relative luminescence versus inhibitor concentration.
Chain of IDH1 R132H enzyme (O75874 whole entry R132H): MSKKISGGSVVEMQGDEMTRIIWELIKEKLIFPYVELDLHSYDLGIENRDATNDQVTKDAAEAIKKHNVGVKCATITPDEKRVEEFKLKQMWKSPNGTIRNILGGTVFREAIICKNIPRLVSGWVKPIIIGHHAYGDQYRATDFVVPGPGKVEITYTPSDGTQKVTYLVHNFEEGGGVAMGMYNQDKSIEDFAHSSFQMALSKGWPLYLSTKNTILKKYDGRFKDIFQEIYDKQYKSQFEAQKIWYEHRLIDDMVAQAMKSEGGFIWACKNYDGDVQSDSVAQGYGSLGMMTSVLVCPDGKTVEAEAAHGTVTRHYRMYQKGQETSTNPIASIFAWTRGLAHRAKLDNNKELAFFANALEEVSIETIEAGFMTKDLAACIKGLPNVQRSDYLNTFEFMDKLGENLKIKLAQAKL

Test [1] has as its target mutated isocitrate dehydrogenase (mIDH) protein, LN229 R132H cells (Homo sapiens (Human), UniProt O75874, R132H). Nature of the test: Mutant IDH1 cellular assay (2-HG in medium of LN229 R132H cells). Format: cell-based. Particulars: 2-HG levels in medium, 24 hours. The protocol: Mutant IDH1 Cellular Assay
They were harvested by trypsin and seeded into 96-well plates. Cells were incubated overnight at 37° C. in 5% CO2. The next day test compounds were added to each cell well. The final concentration of DMSO was 0.1% and DMSO controls were included. The plates were then placed in an incubator for 24 hours.
2-HG was measured according to Balss et al. (Acta Neuropathol (2012) 124: 883-891). Briefly, HClO4 was added to each well and the plates were centrifuged. Aliquots are removed and incubated with hydroxyglutarate dehydrogenase (HGDH), diaphorase, NAD+, and resazurin. The conversion of resazurin to resorufin was detected by fluorescence spectroscopy at Ex 540 nm Em 600 nm. The increase in fluorescence is proportional to 2-HG production. IC50 values are determined by interpolation from plots of relative fluorescence vs inhibitor concentration.

The structures appear in SMILES notation.

Chain of mutated isocitrate dehydrogenase (mIDH) protein, LN229 R132H cells (O75874 whole entry R132H): as above

As for `COC(=O)c1ccc2c(c1)nc(Cc1ccc(C(C)C)cc1)n2[C@H]1C[C@@H](C)CC(C)(C)C1` (racemic) [Example 2-7, (±) methyl 2-[4-(propan-2-yl)benzyl]-1-[(cis)-3,3,5-trimethylcyclohexyl]-1H-benzimidazole-5-carboxylate], the IC50 is 330 nM against IDH1 R132H enzyme and 3000 nM in test [1].
As to `COC(=O)c1cc2nc(Cc3ccc(OC(F)(F)F)cc3)n([C@H]3C[C@@H](C)CC(C)(C)C3)c2cc1C` (racemic) [Example 2-18, (±) methyl 6-methyl-2-[4-(trifluoromethoxy)benzyl]-1-[(cis)-3,3,5-trimethylcyclohexyl]-1H-benzimidazole-5-carboxylate], the IC50 against IDH1 R132H enzyme was 150 nM; in test [1], 1800 nM.
Regarding `COc1cc2c(cc1C(=O)O)nc(Cc1ccc(OC(F)(F)F)cc1)n2[C@@H]1C[C@H](C)CC(C)(C)C1` (racemic) [Example 2-45], the IC50 was determined as 30 nM against IDH1 R132H enzyme and 160 nM in test [1].
The corresponding values for `COc1cc2c(cc1CCC(=O)O)nc(Cc1ccc(OC(F)(F)F)cc1)n2[C@@H]1C[C@H](C)CC(C)(C)C1` (racemic) [Example 2-50] are 30 nM and 210 nM.
For `COC(=O)c1cc2nc(Cc3ccc(OC(F)(F)F)cc3)n([C@H]3C[C@@H](C)CC(C)(C)C3)c2cc1C` (single isomer, unassigned) [Example 2-18-1, methyl 6-methyl-2-[4-(trifluoromethoxy)benzyl]-1-[(cis)-3,3,5-trimethylcyclohexyl]-1H-benzimidazole-5-carboxylate], in that order: 140 nM and 2600 nM.
For the compound `COC(=O)c1cc2nc(Cc3ccc(OC(F)(F)F)cc3)n([C@H]3C[C@@H](C)CC(C)(C)C3)c2cc1OC(C)C` (single isomer, unassigned) [Example 2-20-1, methyl 6-(propan-2-yloxy)-2-[4-(trifluoromethoxy)benzyl]-1-[(cis)-3,3,5-trimethylcyclohexyl]-1H-benzimidazole-5-carboxylate], the midpoint of inhibition on IDH1 R132H enzyme, the IC50, lay at 1300 nM.
Still for that read-out and setting: next, `COC(=O)c1cc2nc(Cc3ccc(OC(F)(F)F)cc3)n([C@H]3C[C@@H](C)CC(C)(C)C3)c2cc1OC(C)C` (single isomer, unassigned) [Example 2-20-2, methyl 6-(propan-2-yloxy)-2-[4-(trifluoromethoxy)benzyl]-1-[(cis)-3,3,5-trimethylcyclohexyl]-1H-benzimidazole-5-carboxylate]: 3300 nM.
As to `COc1cc2c(cc1C(=O)O)nc(Cc1ccc(OC(F)(F)F)cc1)n2[C@@H]1C[C@H](C)CC(C)(C)C1` (single isomer, unassigned) [Example 2-45-1], the IC50 on IDH1 R132H enzyme is 300 nM; in test [1], 1600 nM.
For `COc1cc2c(cc1CCC(=O)O)nc(Cc1ccc(OC(F)(F)F)cc1)n2[C@@H]1C[C@H](C)CC(C)(C)C1` (single isomer, unassigned) [Example 2-50-1], in that order: 200 nM and 3600 nM.
`COC(=O)c1ccc2c(c1)nc(C(C)c1ccc(OC(F)(F)F)cc1)n2[C@H]1C[C@@H](C)CC(C)(C)C1` (single isomer, unassigned) [Reference compound 2-4-1, methyl 2-{1-[4-(trifluoromethoxy)phenyl]ethyl}-1-[(cis)-3,3,5-trimethylcyclohexyl]-1H-benzimidazole-5-carboxylate, reference compound] registered a 50% inhibitory concentration (IC50) at IDH1 R132H enzyme of over 10000 nM.
Same read-out and setting: for `COC(=O)c1ccc2c(c1)nc(C(C)c1ccc(OC(F)(F)F)cc1)n2[C@H]1C[C@@H](C)CC(C)(C)C1` (single isomer, unassigned) [Reference compound 2-4-2, methyl 2-{1-[4-(trifluoromethoxy)phenyl]ethyl}-1-[(cis)-3,3,5-trimethylcyclohexyl]-1H-benzimidazole-5-carboxylate, reference compound] the value was over 10000 nM.
Same read-out and setting: for `COC(=O)c1ccc2c(c1)nc(C(C)c1ccc(OC(F)(F)F)cc1)n2[C@H]1C[C@@H](C)CC(C)(C)C1` (single isomer, unassigned) [Reference compound 2-4-3, methyl 2-{1-[4-(trifluoromethoxy)phenyl]ethyl}-1-[(cis)-3,3,5-trimethylcyclohexyl]-1H-benzimidazole-5-carboxylate, reference compound] the value was 5000 nM.
Still for that read-out and setting: next, `C[C@H]1C[C@@H](n2c(C(C)(C)c3ccc(OC(F)(F)F)cc3)nc3cc(C(=O)O)ccc32)CC(C)(C)C1` (stereo in doubt) [Example 2-31]: 3800 nM.
In the case of `CC(C)Oc1ccc(Cc2nc3cc(C(=O)O)ccc3n2[C@@H]2C[C@H](C)CC(C)(C)C2)cc1` (stereo in doubt) [Example 2-32-1], it took 450 nM to reach half-maximal inhibition at IDH1 R132H enzyme (IC50).
On to `CC(C)Oc1ccc(Cc2nc3cc(C(=O)O)ccc3n2[C@H]2C[C@@H](C)CC(C)(C)C2)cc1` (stereo in doubt) [Example 2-32-2], for which the IC50 on IDH1 R132H enzyme was found to be 300 nM; in test [1], 2500 nM.
`CC(C)Oc1ccc(Cc2nc3cc(C(=O)O)ccc3n2[C@@H]2C[C@H](C)CC(C)(C)C2)cc1` (stereo in doubt) [Example 2-32]: the IC50 against IDH1 R132H enzyme was 250 nM; in test [1] it was 2700 nM.
The corresponding values for `CC(C)c1ccc(Cc2nc3cc(C(=O)O)ccc3n2[C@@H]2C[C@H](C)CC(C)(C)C2)cc1` (stereo in doubt) [Example 2-33] are 50 nM and 350 nM.
Take `C[C@H]1C[C@@H](n2c(Cc3ccc(C(F)(F)F)cc3)nc3cc(C(=O)O)ccc32)CC(C)(C)C1` (stereo in doubt) [Example 2-34]: the IC50 against IDH1 R132H enzyme amounted to 120 nM; in test [1], 1900 nM.
As to `C[C@H]1C[C@@H](n2c(Cc3ccc(F)cc3)nc3cc(C(=O)O)ccc32)CC(C)(C)C1` (stereo in doubt) [Example 2-35], the midpoint of inhibition on IDH1 R132H enzyme, the IC50, lay at 1300 nM.
On the same count and under the same terms, next, `Cc1ccc(Cc2nc3cc(C(=O)O)ccc3n2[C@@H]2C[C@H](C)CC(C)(C)C2)cc1` (stereo in doubt) [Example 2-36]: 580 nM.
On to `C[C@H]1C[C@@H](n2c(Cc3ccc(C(C)(C)C)cc3)nc3cc(C(=O)O)ccc32)CC(C)(C)C1` (stereo in doubt) [Example 2-37], for which the values for the 50% inhibitory concentration (IC50) (at IDH1 R132H enzyme; in test [1]) were 50 nM and 2500 nM, respectively.
`C[C@H]1C[C@@H](n2c(Cc3ccccc3)nc3cc(C(=O)O)ccc32)CC(C)(C)C1` (stereo in doubt) [Example 2-38]: the IC50 on IDH1 R132H enzyme amounted to 2400 nM.
The compound `C[C@H]1C[C@@H](n2c(Cc3ccccc3OC(F)(F)F)nc3cc(C(=O)O)ccc32)CC(C)(C)C1` (stereo in doubt) [Example 2-39] returned an IC50 at IDH1 R132H enzyme of 5000 nM.
Same read-out and setting: next, `C[C@H]1C[C@@H](n2c(Cc3cccc(OC(F)(F)F)c3)nc3cc(C(=O)O)ccc32)CC(C)(C)C1` (stereo in doubt) [Example 2-40]: 1800 nM; `Cc1nc(-c2ccccc2)sc1Cc1nc2cc(C(=O)O)ccc2n1[C@@H]1C[C@H](C)CC(C)(C)C1` (stereo in doubt) [Example 2-41]: 2300 nM; `Cc1[nH]c2ccc(F)cc2c1Cc1nc2cc(C(=O)O)ccc2n1[C@@H]1C[C@H](C)CC(C)(C)C1` (stereo in doubt) [Example 2-42]: 7000 nM.
The same measure, in the same setting: next, `C[C@H]1C[C@@H](n2c(Cc3cn(C)c4ccccc34)nc3cc(C(=O)O)ccc32)CC(C)(C)C1` (stereo in doubt) [Example 2-43]: 6600 nM.
As to `Cc1cc2c(cc1C(=O)O)nc(Cc1ccc(OC(F)(F)F)cc1)n2[C@@H]1C[C@H](C)CC(C)(C)C1` (stereo in doubt) [Example 2-44-1], the concentration for half-maximal inhibition (IC50) on IDH1 R132H enzyme amounted to 20 nM; in test [1], 400 nM.
As for `Cc1cc2c(cc1C(=O)O)nc(Cc1ccc(OC(F)(F)F)cc1)n2[C@H]1C[C@@H](C)CC(C)(C)C1` (stereo in doubt) [Example 2-44-2], the IC50 against IDH1 R132H enzyme came out at 130 nM; in test [1], 2600 nM.
`Cc1cc2c(cc1C(=O)O)nc(Cc1ccc(OC(F)(F)F)cc1)n2[C@@H]1C[C@H](C)CC(C)(C)C1` (stereo in doubt) [Example 2-44]: the results for the IC50 (against IDH1 R132H enzyme; in test [1]) were 70 nM and 170 nM, respectively.
The compound `CC(C)Oc1cc2c(cc1C(=O)O)nc(Cc1ccc(OC(F)(F)F)cc1)n2[C@H]1C[C@@H](C)CC(C)(C)C1` (stereo in doubt) [Example 2-46-2] showed an IC50 on IDH1 R132H enzyme of 500 nM.
In the case of `C[C@H]1C[C@@H](n2c(Cc3ccc(OC(F)(F)F)cc3)nc3cc(C(=O)O)c(OCC(F)(F)F)cc32)CC(C)(C)C1` (stereo in doubt) [Example 2-47-1], the IC50 against IDH1 R132H enzyme stood at 2000 nM.
On to `C[C@@H]1C[C@H](n2c(Cc3ccc(OC(F)(F)F)cc3)nc3cc(C(=O)O)c(OCC(F)(F)F)cc32)CC(C)(C)C1` (stereo in doubt) [Example 2-47-2], for which, on IDH1 R132H enzyme, the IC50 turned out to be 650 nM.
Consider `C[C@H]1C[C@@H](n2c(Cc3ccc(OC(F)(F)F)cc3)nc3cc(C(=O)O)c(OCC(F)(F)F)cc32)CC(C)(C)C1` (stereo in doubt) [Example 2-47], for which the IC50 on IDH1 R132H enzyme was 1000 nM.
Still for that read-out and setting: next, `COC(=O)c1ccc2c(nc(Cc3ccc(OC(F)(F)F)cc3)n2C2CC(C)(C)CC(C)(C)C2)c1F` [Example 2-22, methyl 4-fluoro-1-(3,3,5,5-tetramethylcyclohexyl)-2-[4-(trifluoromethoxy)benzyl]-1H-benzimidazole-5-carboxylate]: 800 nM.

For orientation: IC50 means the midpoint of a concentration-inhibition curve. Lower therefore signals greater potency.

These data come from patent US10179123B2, “2-aryl- and 2-arylalkyl-benzimidazoles as mIDH1 inhibitors” (BAYER PHARMA AKTIENGESELLSCHAFT, priority 2015, dated 2019).
